# Reference: patent US20230146455A1, “TREATMENT OF INFLAMMATORY DISEASES WITH PEPTIDES AND PHARMACEUTICAL COMPOSITIONS” (Yuyu Pharma, Inc., priority 2020, published 2023)
# Several values for one entry are separate records, joined by “and”; a condition that tells them apart may be missing. Equal values may be shown once. Where a SMILES comes first, the peptide text is derived from it. [ ]: non-standard residue; d: D form. Hyp = O=C(O)[C@@H]1C[C@@H](O)CN1
# Key:
# Assay type in all cases: cell-based, human
# [1] = system: IL-10; test: Example 8 main study Luminex, LPS hPBMCs: IL-10; details: for IL-10 Concentration: individual replicates; for IL-10 Concentration (pg/ml), Mean: mean of replicates
# Description: (§1) Human PBMCs were pretreated with YY-101, YDE-011, YDE-043 or reference compound; Xiidra® at various concentration (ranging from […] to 500 nM) for 2 h before stimulation. An equal volume of 0.5% DMSO was used as a vehicle control. Then, the cells were treated with LPS at 5 ug/ml, which was selected based on the pilot study. The supernatants from treated cells were harvested at 24 h and placed in a 96 well for Luminex cytokine & chemokine profiling using a Luminex 200 multiplex assay (Luminex; R&D system, USA).
# (§2) The main study arm with triplicate wells per group in a 24-well plate: • 1. Blank • 2. PBMC: 0.5% DMSO • 3. PBMC+LPS (5 ug/ml) • 4. PBMC+YY-101 500 nM • 5. PBMC+YY-101 50 nM • 6. PBMC+YY-101 5 nM • 7. PBMC+YY-101 0.5 nM • 8. PBMC+LPS (5 ug/ml)+Xiidra® 500 nM • 9. PBMC+LPS (5 ug/ml)+Xiidra® 50 nM • 10. PBMC+LPS (5 ug/ml)+Xiidra® 5 nM • 11. PBMC+LPS (5 ug/ml)+Xiidra® 0.5 nM • 12. PBMC+LPS (5 ug/ml)+Xiidra® 0.05 nM • 13. PBMC+LPS (5 ug/ml)+Xiidra® 0.005 nM • 14. PBMC+LPS (5 ug/ml)+YY-101 500 nM • 15. PBMC+LPS (5 ug/ml)+YY-101 50 nM • 16. PBMC+LPS (5 ug/ml)+YY-101 5 nM • 17. PBMC+LPS (5 ug/ml)+YY-101 0.5 nM • 18. PBMC+LPS (5 ug/ml)+YY-101 0.05 nM • 19. PBMC+LPS (5 ug/ml)+YY-101 0.005 nM • 20. PBMC+LPS (5 ug/ml)+YDE-011 500 nM • 21. PBMC+LPS (5 ug/ml)+YDE-011 50 nM • 22. PBMC+LPS (5 ug/ml)+YDE-011 5 nM • 23. PBMC+LPS (5 ug/ml)+YDE-011 0.5 nM • 24. PBMC+LPS (5 ug/ml)+YDE-011 0.05 nM • 25. PBMC+LPS (5 ug/ml)+YDE-011 0.005 nM • 26. PBMC+LPS (5 ug/ml)+YDE-043 500 nM • 27. PBMC+LPS (5 ug/ml)+YDE-043 50 nM • 28. PBMC+LPS (5 ug/ml)+YDE-043 5 nM • 29. PBMC+LPS (5 ug/ml)+YDE-043 0.5 nM • 30. PBMC+LPS (5 ug/ml)+YDE-043 0.05 nM • 31. PBMC+LPS (5 ug/ml)+YDE-043 0.005 nM
# (§3) Multiplex assay was used to measure 30 cytokines and chemokines. The 1:200 diluted cell supernatant and serial dilution of the standard were dispensed into a 96 well plate at 50 ul/well. Then, the pre-mixed cocktail of antibody-coated magnetic beads was dispensed at 50 ul/well and incubated at room temperature for 2 h in a horizontal orbital microplate shaker at 800±500 rpm. The beads were washed using a magnetic device to prevent loss. The biotin-antibody was dispensed in 50 ul of each well and incubated at room temperature for 1 h in a shaker at 800±500 rpm. After washing, streptavidin-PE was added at 50 ul/well and incubated at room temperature for 30 min in a shaker under the same conditions. Finally, after washing, wash buffer (100 ul/well) was added to the plate and incubated in a shaker for 2 min. The Luminex™ 200 setting were set according to the manufacturer's protocol. The data was calculated with a standard five-parameter logistic nonlinear regression analysis of the data (xPonent software 4.2, USA). Results were presented as concentration (ng/ml or pg/ml).
# [2] = system: CCL3/MIP-1 alpha; test: Example 8 main study Luminex, LPS hPBMCs: CCL3/MIP-1 alpha
# Description: as §1, §2, §3
# [3] = system: MMP-3; test: Example 8 main study Luminex, LPS hPBMCs: MMP-3; details: for MMP-3 Concentration: single replicates
# Description: as §1, §2, §3
# [4] = PBMC + LPS(5 ug/ml) + test article 0.005 nM
# [5] = PBMC + LPS(5 ug/ml) + test article 0.05 nM
# [6] = PBMC + LPS(5 ug/ml) + test article 0.5 nM
# [7] = PBMC + LPS(5 ug/ml) + test article 5 nM
# [8] = PBMC + LPS(5 ug/ml) + test article 50 nM
# [9] = PBMC + LPS(5 ug/ml) + test article 500 nM
# [10] = at as low as 5 μM, LPS 5 ug/mL 24 hrs
# [11] = PBMC + LPS(5 ug/ml) + test article 0.005 nM, Mean
# [12] = PBMC + LPS(5 ug/ml) + test article 0.005 nM, single replicates
# [13] = PBMC + LPS(5 ug/ml) + test article 0.05 nM, Mean
# [14] = PBMC + LPS(5 ug/ml) + test article 0.05 nM, single replicates
# [15] = PBMC + LPS(5 ug/ml) + test article 0.5 nM, Mean
# [16] = PBMC + LPS(5 ug/ml) + test article 0.5 nM, single replicates
# [17] = PBMC + LPS(5 ug/ml) + test article 5 nM, Mean
# [18] = PBMC + LPS(5 ug/ml) + test article 5 nM, single replicates
# [19] = PBMC + LPS(5 ug/ml) + test article 50 nM, Mean
# [20] = PBMC + LPS(5 ug/ml) + test article 50 nM, single replicates
# [21] = PBMC + LPS(5 ug/ml) + test article 500 nM, Mean
# [22] = PBMC + LPS(5 ug/ml) + test article 500 nM, single replicates
# [23] = PBMC + LPS(5 ug/ml) + YDE043 0.005 nM
# [24] = PBMC + LPS(5 ug/ml) + YDE043 0.05 nM
# [25] = PBMC + LPS(5 ug/ml) + YDE043 0.5 nM
# [26] = PBMC + LPS(5 ug/ml) + YDE043 5 nM
# [27] = PBMC + LPS(5 ug/ml) + YDE043 50 nM
# [28] = PBMC + LPS(5 ug/ml) + YDE043 500 nM
smiles,measurement,setting,value
CC(C)C[C@H](NC(=O)[C@H](CCC(N)=O)NC(=O)CNC(=O)[C@@H]1C[C@@H](O)CN1)C(=O)NCC(=O)O [YDE-043] (H-[Hyp]GQLG-OH; N-terminus and C-terminus assumed),IL-10 Concentration,[1]; [4],651.0 pg/mL and 806.6 pg/mL and 1134.2 pg/mL
same,"IL-10 Concentration (pg/ml), Mean",[1]; [4],863.9 pg/mL
same,IL-10 Concentration,[1]; [5],436.9 pg/mL and 518.2 pg/mL and 381.9 pg/mL
same,"IL-10 Concentration (pg/ml), Mean",[1]; [5],445.7 pg/mL
same,IL-10 Concentration,[1]; [6],436.9 pg/mL and 491.3 pg/mL and 624.7 pg/mL
same,"IL-10 Concentration (pg/ml), Mean",[1]; [6],517.6 pg/mL
same,IL-10 Concentration,[1]; [7],545.0 pg/mL and 637.8 pg/mL and 558.4 pg/mL
same,"IL-10 Concentration (pg/ml), Mean",[1]; [7],580.4 pg/mL
same,IL-10 Concentration,[1]; [8],571.7 pg/mL and 598.2 pg/mL and 518.2 pg/mL
same,"IL-10 Concentration (pg/ml), Mean",[1]; [8],562.7 pg/mL
same,IL-10 Concentration,[1]; [9],464.2 pg/mL and 545.0 pg/mL and 436.9 pg/mL
same,"IL-10 Concentration (pg/ml), Mean",[1]; [9],482.0 pg/mL
same,LPS-induced IL-10 (in words),[1]; [10],significantly reduced
same,CCL3/MIP-1 alpha Concentration,[2]; [11],38526.9 pg/mL
same,CCL3/MIP-1 alpha MFI,[2]; [11],57.3
same,CCL3/MIP-1 alpha Concentration,[2]; [12],32345.4 pg/mL and 37296.1 pg/mL and 45939.1 pg/mL
same,CCL3/MIP-1 alpha MFI,[2]; [12],44.0 and 54.0 and 74.0
same,CCL3/MIP-1 alpha Concentration,[2]; [13],29535.1 pg/mL
same,CCL3/MIP-1 alpha MFI,[2]; [13],38.8
same,CCL3/MIP-1 alpha Concentration,[2]; [14],28213.9 pg/ml and 30195.7 pg/ml (2×)
same,CCL3/MIP-1 alpha MFI,[2]; [14],36.5 and 40.0 (2×)
same,CCL3/MIP-1 alpha Concentration,[2]; [15],30000.1 pg/mL
same,CCL3/MIP-1 alpha MFI,[2]; [15],39.7
same,CCL3/MIP-1 alpha Concentration,[2]; [16],29639.8 pg/mL and 31284.6 pg/mL and 29075.9 pg/mL
same,CCL3/MIP-1 alpha MFI,[2]; [16],39.0 and 42.0 and 38.0
same,CCL3/MIP-1 alpha Concentration,[2]; [17],31809.4 pg/mL
same,CCL3/MIP-1 alpha MFI,[2]; [17],43.0
same,CCL3/MIP-1 alpha Concentration,[2]; [18],31818.4 pg/mL and 32865.8 pg/mL and 30743.9 pg/mL
same,CCL3/MIP-1 alpha MFI,[2]; [18],43.0 and 45.0 and 41.0
same,CCL3/MIP-1 alpha Concentration,[2]; [19],31754.6 pg/mL
same,CCL3/MIP-1 alpha MFI,[2]; [19],43.0
same,CCL3/MIP-1 alpha Concentration,[2]; [20],33380.1 pg/ml (2×) and 28503.4 pg/ml
same,CCL3/MIP-1 alpha MFI,[2]; [20],46.0 (2×) and 37.0
same,CCL3/MIP-1 alpha Concentration,[2]; [21],28096.2 pg/mL
same,CCL3/MIP-1 alpha MFI,[2]; [21],36.3
same,CCL3/MIP-1 alpha Concentration,[2]; [22],28503.4 pg/mL and 26426.3 pg/mL and 29358.9 pg/mL
same,CCL3/MIP-1 alpha MFI,[2]; [22],37.0 and 33.5 and 38.5
same,LPS-induced CCL-3 (in words),[2]; [10],significantly reduced
same,"MMP-3 Concentration, Mean",[3]; [23],7677.2 pg/mL
same,MMP-3 Concentration,[3]; [23],7173.5 pg/mL and 7776.9 pg/mL and 8081.3 pg/mL
same,"MMP-3 Concentration, Mean",[3]; [24],7136.1 pg/mL
same,MMP-3 Concentration,[3]; [24],7061.2 pg/mL and 7248.5 pg/mL and 7098.6 pg/mL
same,"MMP-3 Concentration, Mean",[3]; [25],7173.5 pg/mL
same,MMP-3 Concentration,[3]; [25],7098.6 pg/mL and 7248.5 pg/mL and 7173.5 pg/mL
same,"MMP-3 Concentration, Mean",[3]; [26],7424.0 pg/mL
same,MMP-3 Concentration,[3]; [26],7474.3 pg/ml (2×) and 7323.6 pg/ml
same,"MMP-3 Concentration, Mean",[3]; [27],7337.3 pg/mL
same,MMP-3 Concentration,[3]; [27],7701.1 pg/mL and 7398.9 pg/mL and 6911.8 pg/mL
same,"MMP-3 Concentration, Mean",[3]; [28],7311.7 pg/mL
same,MMP-3 Concentration,[3]; [28],7098.6 pg/mL and 7663.2 pg/mL and 7173.5 pg/mL
same,LPS-induced MMP3 (in words),[3]; [10],significantly reduced
